Laboratory results taken from patent US9796711B2, “Substituted pyrazolo[3,4-b]pyridin-6-carboxylic acids and method of use” (AbbVie S.àr.l., priority 2015, dated 2017).

Columns and labels:
ΔF508-CFTR [1] = target: T1, ΔF508-CFTR (Homo sapiens, UniProt P13569, DEL508-508); experiment: CFTR cell surface levels using HRP-tagged ΔF508-CFTR expressing CFBE cells, in the presence of a co-corrector; format: cell-based; conditions: HRP-tagged ΔF508-CFTR expressing CFBE cells, in the presence of 3 μM co-corrector; for EC50: read-out: EC50
T1 construct: host or cells: CFBE41o-, doxycycline-inducible
In short: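 Cells were seeded with 0.5 μg/mL doxycycline and held 68 h at 37 °C. Test compounds plus 3 μM co-corrector (final 0.1% DMSO) were then added for 20 h at 33 °C. Washed cells received HRP substrate, and luminescence was normalized between DMSO and 3 μM co-corrector controls.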

ΔF508-CFTR [2] = target: T1, ΔF508-CFTR; experiment: CFTR cell surface levels using HRP-tagged ΔF508-CFTR expressing CFBE cells, intrinsic corrector capacity; format: cell-based; conditions: for EC50: read-out: EC50
In short: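 Here the cells express ΔF508-CFTR with horseradish peroxidase inserted in extracellular loop 4, so only rescued channel at the surface gives luminescent signal. Compounds act on their own, 20 h at the reduced temperature of 33 °C; values are percent activity relative to DMSO and a 3 μM corrector.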

[3] = HRP-tagged ΔF508-CFTR CFBE41o- cells, compounds alone (intrinsic corrector capacity), 20 hours at 33° C., positive control 3 μM corrector
[4] = HRP-tagged ΔF508-CFTR CFBE41o- cells, compounds alone (intrinsic corrector capacity), 20 hours at 33° C.
[5] = HRP-tagged ΔF508-CFTR expressing CFBE cells, intrinsic corrector capacity (no co-corrector), 33° C., 20 hours

T1 sequence (P13569 with tags, fused parts or gaps DEL508-508): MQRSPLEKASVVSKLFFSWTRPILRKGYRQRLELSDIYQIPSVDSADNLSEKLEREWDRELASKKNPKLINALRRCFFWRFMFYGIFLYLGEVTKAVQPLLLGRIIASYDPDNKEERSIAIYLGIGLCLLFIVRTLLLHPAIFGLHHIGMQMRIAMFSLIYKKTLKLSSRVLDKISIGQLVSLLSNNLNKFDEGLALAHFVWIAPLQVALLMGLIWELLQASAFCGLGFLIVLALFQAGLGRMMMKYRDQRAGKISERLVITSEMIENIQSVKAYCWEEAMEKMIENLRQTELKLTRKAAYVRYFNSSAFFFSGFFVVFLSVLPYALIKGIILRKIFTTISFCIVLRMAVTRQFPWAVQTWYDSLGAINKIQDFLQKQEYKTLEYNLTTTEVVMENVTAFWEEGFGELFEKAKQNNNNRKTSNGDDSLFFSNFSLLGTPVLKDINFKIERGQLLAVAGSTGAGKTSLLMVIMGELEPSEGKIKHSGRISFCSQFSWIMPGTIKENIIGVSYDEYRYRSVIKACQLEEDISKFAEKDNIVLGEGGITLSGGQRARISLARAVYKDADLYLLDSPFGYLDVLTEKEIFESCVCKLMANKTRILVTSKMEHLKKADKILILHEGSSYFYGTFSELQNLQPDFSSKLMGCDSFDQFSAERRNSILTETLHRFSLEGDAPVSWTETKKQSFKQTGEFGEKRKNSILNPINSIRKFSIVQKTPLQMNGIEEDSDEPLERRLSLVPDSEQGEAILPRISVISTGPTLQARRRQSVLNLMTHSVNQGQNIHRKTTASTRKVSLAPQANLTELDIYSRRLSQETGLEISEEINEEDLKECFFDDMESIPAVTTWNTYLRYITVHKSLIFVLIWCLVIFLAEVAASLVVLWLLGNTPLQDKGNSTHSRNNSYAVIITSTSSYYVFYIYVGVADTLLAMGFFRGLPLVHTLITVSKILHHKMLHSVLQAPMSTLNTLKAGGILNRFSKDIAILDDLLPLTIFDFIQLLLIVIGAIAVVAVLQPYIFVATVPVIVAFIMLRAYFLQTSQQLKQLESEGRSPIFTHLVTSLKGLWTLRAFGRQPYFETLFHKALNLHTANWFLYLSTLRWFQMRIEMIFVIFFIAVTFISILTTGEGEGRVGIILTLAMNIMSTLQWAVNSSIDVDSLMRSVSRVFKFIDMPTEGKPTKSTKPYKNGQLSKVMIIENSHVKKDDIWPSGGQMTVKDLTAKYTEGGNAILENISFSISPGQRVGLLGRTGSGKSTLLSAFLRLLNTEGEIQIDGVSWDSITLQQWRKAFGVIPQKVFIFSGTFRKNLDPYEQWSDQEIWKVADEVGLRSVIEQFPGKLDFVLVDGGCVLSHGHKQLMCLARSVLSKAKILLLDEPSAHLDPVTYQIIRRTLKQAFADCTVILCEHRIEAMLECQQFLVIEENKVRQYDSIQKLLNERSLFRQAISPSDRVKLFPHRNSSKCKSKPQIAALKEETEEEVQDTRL

Compound	% Activation (ΔF508-CFTR [1]) [%]	EC50 (ΔF508-CFTR [1]) [nM]	% Activation (ΔF508-CFTR [2]; [3]) [%]	EC50 (ΔF508-CFTR [2]; [4]) [nM]	% Activation (ΔF508-CFTR [2]; [5]) [%]	EC50 (ΔF508-CFTR [2]; [5]) [nM]
COC1CCN(c2cc(C(=O)O)nc3c2c(C(C)C)nn3-c2ccc(F)cc2)CC1 [compound 393, 1-(4-fluorophenyl)-4-(4-methoxypiperidin-1-yl)-3-(propan-2-yl)-1H-pyrazolo[3,4-b]pyridine-6-carboxylic acid]	454.3	314	258.8	558		
CC(C)c1nn(-c2ccc(F)cc2)c2nc(C(=O)O)cc(N3CCC(CO)CC3)c12 [compound 394, 1-(4-fluorophenyl)-4-[4-(hydroxymethyl)piperidin-1-yl]-3-(propan-2-yl)-1H-pyrazolo[3,4-b]pyridine-6-carboxylic acid]	392.57	677	235.1	1490		
CCCCOC1CCN(c2cc(C(=O)O)nc3c2c(C(C)C)nn3-c2ccc(F)cc2)CC1 [compound 395, 4-(4-butoxypiperidin-1-yl)-1-(4-fluorophenyl)-3-(propan-2-yl)-1H-pyrazolo[3,4-b]pyridine-6-carboxylic acid]	480.35	549			223.6	438
CC(C)COC1CCN(c2cc(C(=O)O)nc3c2c(C(C)C)nn3-c2ccc(F)cc2)CC1 [compound 396, 1-(4-fluorophenyl)-4-[4-(2-methylpropoxy)piperidin-1-yl]-3-(propan-2-yl)-1H-pyrazolo[3,4-b]pyridine-6-carboxylic acid]	409.8	301			209.3	403
COC1(C)CCN(c2cc(C(=O)O)nc3c2c(C(C)C)nn3-c2ccc(F)cc2)CC1 [compound 397, 1-(4-fluorophenyl)-4-(4-methoxy-4-methylpiperidin-1-yl)-3-(propan-2-yl)-1H-pyrazolo[3,4-b]pyridine-6-carboxylic acid]	217.3	299			73.11	645
CC(C)c1nn(-c2ccc(F)cc2)c2nc(C(=O)O)cc(N3CCC4(CCO4)CC3)c12 [compound 398, 1-(4-fluorophenyl)-4-(1-oxa-7-azaspiro[3.5]nonan-7-yl)-3-(propan-2-yl)-1H-pyrazolo[3,4-b]pyridine-6-carboxylic acid]	275.7	737			96.49	1290
CC(C)c1nn(-c2ccc(F)cc2)c2nc(C(=O)O)cc(N3CCCC(C(F)F)C3)c12 (centres unmarked) [compound 399, 4-[3-(difluoromethyl)piperidin-1-yl]-1-(4-fluorophenyl)-3-(propan-2-yl)-1H-pyrazolo[3,4-b]pyridine-6-carboxylic acid]	336.55	475			137.6	824
CC(C)c1nn(-c2ccc(F)cc2)c2nc(C(=O)O)cc(N3CC4(CCCOC4)C3)c12 [compound 400, 1-(4-fluorophenyl)-4-(6-oxa-2-azaspiro[3.5]nonan-2-yl)-3-(propan-2-yl)-1H-pyrazolo[3,4-b]pyridine-6-carboxylic acid]	283.65	980			111.35	1350
CC(C)c1nn(-c2ccc(F)cc2)c2nc(C(=O)O)cc(N3CCC4(CCCO4)CC3)c12 [compound 401, 1-(4-fluorophenyl)-4-(1-oxa-8-azaspiro[4.5]decan-8-yl)-3-(propan-2-yl)-1H-pyrazolo[3,4-b]pyridine-6-carboxylic acid]	306.07	653			136.97	1100
CC(C)c1nn(C2CCCCC2)c2nc(C(=O)O)cc(C3=CC(C)(C)OC(C)(C)C3)c12 [compound 402, 1-cyclohexyl-3-(propan-2-yl)-4-(2,2,6,6-tetramethyl-3,6-dihydro-2H-pyran-4-yl)-1H-pyrazolo[3,4-b]pyridine-6-carboxylic acid]	214.5	1110			43.815	715
COCCC1CCN(c2cc(C(=O)O)nc3c2c(C2CCC2)nn3-c2ccccc2)CC1 [compound 403, 3-cyclobutyl-4-[4-(2-methoxyethyl)piperidin-1-yl]-1-phenyl-1H-pyrazolo[3,4-b]pyridine-6-carboxylic acid]	507.25	311			293.4	408
O=C(O)c1cc(N2CC3(CCCC3)C2)c2c(C3CCC3)nn(-c3ccccc3)c2n1 [compound 404, 4-(2-azaspiro[3.4]octan-2-yl)-3-cyclobutyl-1-phenyl-1H-pyrazolo[3,4-b]pyridine-6-carboxylic acid]	275.95	849			104.91	910
COCC1CCN(c2cc(C(=O)O)nc3c2c(C2CCC2)nn3-c2ccccc2)CC1 [compound 405, 3-cyclobutyl-4-[4-(methoxymethyl)piperidin-1-yl]-1-phenyl-1H-pyrazolo[3,4-b]pyridine-6-carboxylic acid]	512.4	226			298.75	347
O=C(O)c1cc(N2CC3CC3C2)c2c(C3CCC3)nn(-c3ccccc3)c2n1 (centres unmarked) [compound 406, 4-(3-azabicyclo[3.1.0]hexan-3-yl)-3-cyclobutyl-1-phenyl-1H-pyrazolo[3,4-b]pyridine-6-carboxylic acid]	359.55	641			182.5	823
O=C(O)c1cc(OCC2CCCCC2)c2c(C3CCC3)nn(-c3ccccc3)c2n1 [compound 407, 3-cyclobutyl-4-(cyclohexylmethoxy)-1-phenyl-1H-pyrazolo[3,4-b]pyridine-6-carboxylic acid]	323.95	662			125.25	925
O=C(O)c1cc(N2CCCCC2)c2c(C3CCC3)nn(-c3ccccc3)c2n1 [compound 408, 3-cyclobutyl-1-phenyl-4-(piperidin-1-yl)-1H-pyrazolo[3,4-b]pyridine-6-carboxylic acid]	346.95	617			141.15	932
O=C(O)c1cc(N2CC3(CCCCC3)C2)c2c(C3CCC3)nn(-c3ccccc3)c2n1 [compound 409, 4-(2-azaspiro[3.5]nonan-2-yl)-3-cyclobutyl-1-phenyl-1H-pyrazolo[3,4-b]pyridine-6-carboxylic acid]	249.3	1110			75.39	1070
N#CC1CCN(c2cc(C(=O)O)nc3c2c(C2CCC2)nn3-c2ccccc2)CC1 [compound 410, 4-(4-cyanopiperidin-1-yl)-3-cyclobutyl-1-phenyl-1H-pyrazolo[3,4-b]pyridine-6-carboxylic acid]	317.5	228			155.63	557
CS(=O)(=O)C1CCN(c2cc(C(=O)O)nc3c2c(C2CCC2)nn3-c2ccccc2)CC1 [compound 411, 3-cyclobutyl-4-[4-(methanesulfonyl)piperidin-1-yl]-1-phenyl-1H-pyrazolo[3,4-b]pyridine-6-carboxylic acid]	456	976			280.85	3340
COC1CCN(c2cc(C(=O)O)nc3c2c(C(C)C)nn3-c2ccnc(N3CCCC3)c2)CC1 [compound 412, 4-(4-methoxypiperidin-1-yl)-3-(propan-2-yl)-1-[2-(pyrrolidin-1-yl)pyridin-4-yl]-1H-pyrazolo[3,4-b]pyridine-6-carboxylic acid]	387.2	307			215.6	460
N#CC1CCN(c2ccc(-c3cc(C(=O)O)nc4c3c(C3CCC3)nn4-c3ccnc(N4CCCC4)c3)cn2)CC1 [compound 413, 4-[6-(4-cyanopiperidin-1-yl)pyridin-3-yl]-3-cyclobutyl-1-[2-(pyrrolidin-1-yl)pyridin-4-yl]-1H-pyrazolo[3,4-b]pyridine-6-carboxylic acid]	392.2	338			216.65	527
O=C(O)c1cc(OCCC2CCOCC2)c2c(C3CCC3)nn(-c3ccccc3)c2n1 [compound 414, 3-cyclobutyl-4-[2-(oxan-4-yl)ethoxy]-1-phenyl-1H-pyrazolo[3,4-b]pyridine-6-carboxylic acid]	295.15	373			120.3	692
O=C(O)c1cc(OC[C@@H](F)C2CCOCC2)c2c(C3CCC3)nn(-c3ccccc3)c2n1 [compound 415, 3-cyclobutyl-4-[(2S)-2-fluoro-2-(oxan-4-yl)ethoxy]-1-phenyl-1H-pyrazolo[3,4-b]pyridine-6-carboxylic acid]	334.35	249			168.85	487
